Results reported in ChEMBL document CHEMBL2396546, “Australian marine sponge alkaloids as a new class of glycine-gated chloride channel receptor modulator” (Bioorg Med Chem, 2013).

Columns and labels:
Assay type in all cases: cell-based
[1] = molecular target: T1, Glycine receptor subunit alpha-3 (Homo sapiens, UniProt O75311); assay: Modulation of recombinant GlyR-alpha3 (unknown origin) expressed in HEK293 cells assessed as inhibition of glycine-induced current by automated planar patch-clamp automated electrophysiology assay
T1 sequence (O75311 whole entry): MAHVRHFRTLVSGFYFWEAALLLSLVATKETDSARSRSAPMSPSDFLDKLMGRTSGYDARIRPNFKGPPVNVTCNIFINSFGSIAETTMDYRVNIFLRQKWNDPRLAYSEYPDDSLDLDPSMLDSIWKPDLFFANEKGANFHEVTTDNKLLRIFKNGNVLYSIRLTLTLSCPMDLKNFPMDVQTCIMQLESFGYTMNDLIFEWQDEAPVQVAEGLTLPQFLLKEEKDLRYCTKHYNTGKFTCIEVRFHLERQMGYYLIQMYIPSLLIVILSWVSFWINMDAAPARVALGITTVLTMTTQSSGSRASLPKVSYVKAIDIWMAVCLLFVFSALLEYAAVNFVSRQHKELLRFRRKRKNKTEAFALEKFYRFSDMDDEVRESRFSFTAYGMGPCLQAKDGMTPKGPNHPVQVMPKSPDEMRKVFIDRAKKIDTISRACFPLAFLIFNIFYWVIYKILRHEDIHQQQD

[2] = molecular target: T2, Glycine receptor subunit alpha-1 (Homo sapiens, UniProt P23415); assay: Modulation of recombinant GlyR-alpha1 (unknown origin) expressed in HEK293 cells assessed as inhibition of glycine-induced current by automated planar patch-clamp automated electrophysiology assay
T2 sequence (P23415 whole entry): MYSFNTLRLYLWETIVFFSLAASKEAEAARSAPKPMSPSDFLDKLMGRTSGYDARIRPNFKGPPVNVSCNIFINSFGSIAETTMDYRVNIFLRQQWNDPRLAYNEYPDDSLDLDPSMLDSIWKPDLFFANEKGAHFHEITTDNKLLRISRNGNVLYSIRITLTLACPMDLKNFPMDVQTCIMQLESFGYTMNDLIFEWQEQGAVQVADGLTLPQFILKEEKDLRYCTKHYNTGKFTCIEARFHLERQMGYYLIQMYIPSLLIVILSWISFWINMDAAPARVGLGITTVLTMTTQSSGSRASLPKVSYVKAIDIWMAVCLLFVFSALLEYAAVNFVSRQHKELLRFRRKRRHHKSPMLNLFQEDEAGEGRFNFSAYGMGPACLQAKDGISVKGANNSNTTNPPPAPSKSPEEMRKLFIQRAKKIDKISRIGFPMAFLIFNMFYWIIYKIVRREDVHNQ

[3] = molecular target: T3, Glycine receptor subunit alpha-1 (Homo sapiens) (UniProt P23415); assay: Modulation of recombinant GlyR-alpha1 (unknown origin) expressed in HEK293 cells assessed as inhibition of glycine-induced current at 1 uM by automated planar patch-clamp automated electrophysiology assay
T3 sequence (whole entry): T2 sequence (P23415 whole entry)

Row | IC50 [1] | IC50 [2] | inhibition [3] | SMILES
1 | 33.9 µM | 8.8 µM | – | CN1C(=O)NC(=O)/C1=C\c1c[nH]c2ccccc12
2 | > 300 µM | 25.9 µM | 126% | CN1C(=N)N(C)[C@@]2(C1=O)c1[nH]c3ccccc3c1C[C@@]1(C(=O)N(C)C(=N)N1C)[C@@H]2c1c[nH]c2ccccc12
3 | 67 µM | > 200 µM | – | CN1C(=O)/C(=C\c2c[nH]c3ccccc23)N(C)C1=O
